{"source": "PubChem BioAssay AID1259408", "about": "(Genetic Toxicology Data Bank (GENE-TOX), 2018)", "tested_on": "GENE-TOX genotoxicity assays, various organisms and cells", "assay": "GENE-TOX mutagenicity studies", "settings": "for call: Assay Type: In vivo carcinogenicity studies", "key": {"[1]": {"settings": "Species/Cell Type: Nonhuman, Assay Code: CCG+, Evaluation Type: Evaluation A (Pre-1980)"}, "[2]": {"settings": "Species/Cell Type: Drosophila melanogaster, Assay Type: Sex-linked recessive lethal gene mutation, Assay Code: SRL+, Evaluation Type: Evaluation A (Pre-1980)"}, "[3]": {"settings": "Species/Cell Type: Escherichia coli polA (W3119 vs P3478), Assay Type: Rec-assay, DNA effects (bacterial DNA repair), Assay Code: RE1+, Evaluation Type: Evaluation A (Pre-1980)"}}, "note": "Calls of active or inactive are those of the source. How the calls were made is not given here."}
{"smiles": "NNC(=O)c1ccncc1", "values": [{"measurement": "mutagenic call", "setting": "Species/Cell Type: Human, Assay Type: Sister-chromatid exchange (SCE) in vitro, Assay Code: SC1+, Evaluation Type: Evaluation B (Post-1980)", "result": "active; positive"}, {"measurement": "mutagenic call", "setting": "Species/Cell Type: Mammalian germ cells, Sex: Male, Assay Type: Chromosome aberrations in vivo, Assay Code: CY9T, Evaluation Type: Evaluation A (Pre-1980)", "result": "no conclusion"}, {"measurement": "mutagenic call", "setting": "Species/Cell Type: Mammalian oocytes or early embryo, Assay Type: Chromosome aberrations in vivo, Assay Code: CYO-, Evaluation Type: Evaluation A (Pre-1980)", "result": "inactive; negative"}, {"measurement": "mutagenic call", "setting": "Species/Cell Type: Mouse, Sex: Female, Assay Type: Spot test, gene mutation, Assay Code: MSTT, Evaluation Type: Evaluation A (Pre-1980)", "result": "no conclusion"}, {"measurement": "mutagenic call", "setting": "Species/Cell Type: Mouse, Sex: Male, Assay Type: Sperm morphology, Assay Code: SPI-, Evaluation Type: Evaluation A (Pre-1980)", "result": "inactive; negative"}, {"measurement": "call", "setting": "Species/Cell Type: Nonhuman, Assay Code: CCG+L, Evaluation Type: Evaluation A (Pre-1980)", "result": "active; positive"}, {"measurement": "mutagenic call", "setting": "Species/Cell Type: Nonhuman, Assay Type: Sister-chromatid exchange (SCE) in vitro, Assay Code: SC2+D, Dose Response: With dose response, Evaluation Type: Evaluation B (Post-1980)", "result": "active; positive"}, {"measurement": "mutagenic call", "setting": "Species/Cell Type: Nonhuman, Assay Type: Sister-chromatid exchange (SCE) in vivo, Assay Code: SC3T, Evaluation Type: Evaluation B (Post-1980)", "result": "no conclusion"}, {"measurement": "mutagenic call", "setting": "Species/Cell Type: Rabbit, Sex: Male, Assay Type: Sperm morphology, Assay Code: SPR-, Evaluation Type: Evaluation A (Pre-1980)", "result": "inactive; negative"}, {"measurement": "mutagenic call", "setting": "Species/Cell Type: Rodents, Sex: Male, Assay Type: Dominant lethal test, Assay Code: DLT-, Evaluation Type: Evaluation A (Pre-1980)", "result": "inactive; negative"}, {"measurement": "mutagenic call", "setting": "Species/Cell Type: Salmonella typhimurium, Assay Type: Forward and reverse gene mutation, body fluid assay, Assay Code: BFUT, Evaluation Type: Evaluation A (Pre-1980)", "result": "no conclusion"}, {"measurement": "mutagenic call", "setting": "Species/Cell Type: Salmonella typhimurium, Assay Type: Forward and reverse gene mutation, host-mediated assay, Assay Code: HMA+, Evaluation Type: Evaluation A (Pre-1980)", "result": "active; positive"}]}
{"smiles": "Cc1cc(O)cc(O)c1", "values": [{"measurement": "mutagenic call", "setting": "Species/Cell Type: Allium cepa, Assay Type: Chromosome aberrations, Assay Code: ALC-, Evaluation Type: Evaluation A (Pre-1980)", "result": "inactive; negative"}]}
{"smiles": "CCOP(=S)(NC(C)C)Oc1ccccc1C(=O)OC(C)C", "note": "(stereo unspecified)", "values": [{"measurement": "mutagenic call", "setting": "Species/Cell Type: Nonhuman, Assay Type: Sister-chromatid exchange (SCE) in vitro, Assay Code: SC2-, Evaluation Type: Evaluation B (Post-1980)", "result": "inactive; negative"}]}
{"smiles": "CCCCOCCOCCOCc1cc2c(cc1CCC)OCO2", "values": [{"measurement": "call", "setting": "Species/Cell Type: Nonhuman, Assay Code: CCG-L, Evaluation Type: Evaluation A (Pre-1980)", "result": "inactive; negative"}]}
{"smiles": "[Cl][Ce]([Cl])[Cl]", "values": [{"measurement": "mutagenic call", "setting": "Species/Cell Type: Bacillus subtilis (H17 vs M45), Assay Type: Rec-assay, spot test, DNA effects (bacterial DNA repair), Assay Code: REW-, Evaluation Type: Evaluation A (Pre-1980)", "result": "inactive; negative"}]}
{"smiles": "C=C/C=C/C=C/C#CC#C/C=C/C", "values": [{"measurement": "mutagenic call", "setting": "Species/Cell Type: Nonhuman, Assay Type: Sister-chromatid exchange (SCE) in vitro, Assay Code: SC2T, Evaluation Type: Evaluation B (Post-1980)", "result": "no conclusion"}]}
{"smiles": "[O]=[Cd]", "values": [{"measurement": "call", "setting": "[1]", "result": "active; positive"}]}
{"smiles": "CCOC(=O)CCCCC(=O)OCC", "values": [{"measurement": "mutagenic call", "setting": "Species/Cell Type: Rodents, Sex: Male, Assay Type: Dominant lethal test, Assay Code: DLT+, Evaluation Type: Evaluation A (Pre-1980)", "result": "active; positive"}]}
{"smiles": "OCNc1nc(NCO)nc(NCO)n1", "values": [{"measurement": "mutagenic call", "setting": "[2]", "result": "active; positive"}]}
{"smiles": "c1ccc2c3c(ccc2c1)-c1cccc2cccc-3c12", "values": [{"measurement": "call", "setting": "[1]", "result": "active; positive"}]}
{"smiles": "O[C@@H]1c2ccccc2-c2cc3ccc4ccccc4c3cc2[C@H]1O", "values": [{"measurement": "mutagenic call", "setting": "Species/Cell Type: Chinese hamster lung (V79) cells, Assay Type: Forward gene mutation at the HPRT or ouabain locus, Assay Code: V79-, Evaluation Type: Evaluation A (Pre-1980)", "result": "inactive; negative"}, {"measurement": "mutagenic call", "setting": "Species/Cell Type: Mouse prostate cells, Assay Type: Cell transformation, Assay Code: CTM-, Evaluation Type: Evaluation A (Pre-1980)", "result": "inactive; negative"}, {"measurement": "call", "setting": "Species/Cell Type: Nonhuman, Assay Code: CCGT, Evaluation Type: Evaluation A (Pre-1980)", "result": "no conclusion"}, {"measurement": "mutagenic call", "setting": "Species/Cell Type: Salmonella typhimurium (one or more of the five standard strains: TA98, TA100, TA1535, TA1537, and TA1538), Assay Type: Histidine reverse gene mutation, Ames assay, Assay Code: SAL+*, Activation: With metabolic activation, Evaluation Type: Evaluation A (Pre-1980)", "result": "active; positive"}, {"measurement": "mutagenic call", "setting": "Species/Cell Type: Syrian hamster embryo (SHE) cells, Assay Type: Cell transformation, clonal assay, Assay Code: CTCT, Evaluation Type: Evaluation A (Pre-1980)", "result": "no conclusion"}]}
{"smiles": "O=[N+]([O-])c1ccc2c3c(cccc13)CC2", "values": [{"measurement": "call", "setting": "[1]", "result": "active; positive"}, {"measurement": "mutagenic call", "setting": "Species/Cell Type: Salmonella typhimurium (one or more of the five standard strains: TA98, TA100, TA1535, TA1537, and TA1538), Assay Type: Histidine reverse gene mutation, Ames assay, Assay Code: SAL+, Evaluation Type: Evaluation A (Pre-1980)", "result": "active; positive"}]}
{"smiles": "CI", "values": [{"measurement": "mutagenic call", "setting": "[3]", "result": "active; positive"}, {"measurement": "mutagenic call", "setting": "Species/Cell Type: Mouse lymphoma (L5178Y) cells, Assay Type: Forward gene mutation at the thymidine kinase (TK) locus, chromosome aberrations, Assay Code: L51+, Evaluation Type: Evaluation A (Pre-1980)", "result": "active; positive"}, {"measurement": "call", "setting": "[1]", "result": "active; positive"}, {"measurement": "mutagenic call", "setting": "Species/Cell Type: Saccharomyces cerevisiae, Assay Type: Mitotic recombination or gene conversion, Assay Code: YEH+, Evaluation Type: Evaluation A (Pre-1980)", "result": "active; positive"}, {"measurement": "mutagenic call", "setting": "Species/Cell Type: Syrian hamster embryo (SHE) cells, Assay Type: Cell transformation, clonal assay, Assay Code: CTC+, Evaluation Type: Evaluation A (Pre-1980)", "result": "active; positive"}]}
{"smiles": "CN(C)CCOc1ccc2c(c1)CC/C(=C\\c1ncc([N+](=O)[O-])n1C)C2=O", "values": [{"measurement": "mutagenic call", "setting": "[2]", "result": "active; positive"}, {"measurement": "mutagenic call", "setting": "Species/Cell Type: Saccharomyces cerevisiae, Assay Type: Mitotic recombination or gene conversion, Assay Code: YEC+, Evaluation Type: Evaluation A (Pre-1980)", "result": "active; positive"}]}
{"smiles": "CCCCCN(C)N=O", "values": [{"measurement": "mutagenic call", "setting": "[3]", "result": "active; positive"}]}
